Reference: PubChem BioAssay AID256 (DTP/NCI, 2004)
Values joined by “and” are separate entries in the source; they are usually repeats but may differ in a detail not shown here. Equal entries are not always repeated. Inconclusive results and toxic doses are left out. Rule for the calls: active = survival T/C of 150% or more; inactive = T/C below 125% in these data.

Tested on: CD2F1 mice, L1210 leukemia ip, survival T/C
Assay: NCI In Vivo Anticancer Drug Screen. Data for tumor model L1210 Leukemia (intraperitoneal) in CD2F1 (CDF1) mice
Details: higher = longer survival
Procedure, shortened: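 Activity against a transplanted murine tumor was judged by comparing the compound group with a vehicle group. The outcome in the treated animals was divided by that in the controls.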

[1] = endpoint: mean survival time, dose: 200.0 mg/kg/injection, schedule: Q01DX009 (ip), vehicle: saline with Tween-80
[2] = endpoint: mean survival time, dose: 100.0 mg/kg/injection, schedule: Q01DX009 (ip), vehicle: saline
[3] = endpoint: mean survival time, dose: 200.0 mg/kg/injection, schedule: Q01DX009 (ip), vehicle: saline
[4] = endpoint: mean survival time, dose: 100.0 mg/kg/injection, schedule: Q01DX001 (ip), vehicle: saline
[5] = endpoint: mean survival time, dose: 200.0 mg/kg/injection, schedule: Q01DX001 (ip), vehicle: saline
[6] = endpoint: mean survival time, dose: 400.0 mg/kg/injection, schedule: Q01DX001 (ip), vehicle: saline
[7] = endpoint: mean survival time, dose: 400.0 mg/kg/injection, schedule: Q01DX009 (ip), vehicle: saline
[8] = endpoint: mean survival time, dose: 100.0 mg/kg/injection, schedule: Q04DX003 (ip), vehicle: saline with Tween-80
[9] = endpoint: mean survival time, dose: 200.0 mg/kg/injection, schedule: Q04DX003 (ip), vehicle: saline with Tween-80
[10] = endpoint: mean survival time, dose: 400.0 mg/kg/injection, schedule: Q04DX003 (ip), vehicle: saline with Tween-80
[11] = endpoint: mean survival time, dose: 100.0 mg/kg/injection, schedule: Q01DX009 (ip), vehicle: saline with Tween-80

Measured: T/C

Nc1ncnc2c1ncn2C1OC(CO)C(O)C1O (stereo not drawn)
inactive: endpoint: mean survival time, dose: 3.12 mg/kg/injection, schedule: Q01DX009 (ip), vehicle: Klucel (hydroxypropylcellulose) (HPC) 100 % of control | endpoint: mean survival time, dose: 6.25 mg/kg/injection, schedule: Q01DX009 (ip), vehicle: Klucel (hydroxypropylcellulose) (HPC) 100 % of control | endpoint: mean survival time, dose: 12.5 mg/kg/injection, schedule: Q01DX009 (ip), vehicle: Klucel (hydroxypropylcellulose) (HPC) 95 % of control | endpoint: mean survival time, dose: 18.7 mg/kg/injection, schedule: Q01DX009 (ip), vehicle: saline 87 % of control | endpoint: mean survival time, dose: 18.75 mg/kg/injection, schedule: Q01DX009 (ip), vehicle: saline 92 % of control | endpoint: mean survival time, dose: 18.75 mg/kg/injection, schedule: Q04DX003 (ip), vehicle: saline 97 % of control | endpoint: mean survival time, dose: 25.0 mg/kg/injection, schedule: Q01DX009 (ip), vehicle: Klucel (hydroxypropylcellulose) (HPC) 95 % of control | endpoint: mean survival time, dose: 25.0 mg/kg/injection, schedule: Q04DX003 (ip), vehicle: saline 100 % of control | endpoint: mean survival time, dose: 37.5 mg/kg/injection, schedule: Q01DX009 (ip), vehicle: saline 86 % of control and 96 % of control | endpoint: mean survival time, dose: 37.5 mg/kg/injection, schedule: Q04DX003 (ip), vehicle: saline 98 % of control | endpoint: mean survival time, dose: 50.0 mg/kg/injection, schedule: Q04DX003 (ip), vehicle: saline 100 % of control | endpoint: mean survival time, dose: 75.0 mg/kg/injection, schedule: Q01DX009 (ip), vehicle: saline 96 % of control | endpoint: mean survival time, dose: 110.0 mg/kg/injection, schedule: Q03HX024 (ip), vehicle: saline with Tween-80 120 % of control | endpoint: mean survival time, dose: 118.0 mg/kg/injection, schedule: Q01DX005 (ip), vehicle: water 102 % of control | endpoint: mean survival time, dose: 118.0 mg/kg/injection, schedule: Q01DX009 (ip), vehicle: water 104 % of control | endpoint: mean survival time, dose: 150.0 mg/kg/injection, schedule: Q01DX009 (ip), vehicle: saline 96 % of control and 100 % of control | endpoint: mean survival time, dose: 177.0 mg/kg/injection, schedule: Q01DX005 (ip), vehicle: water 99 % of control | endpoint: mean survival time, dose: 177.0 mg/kg/injection, schedule: Q01DX009 (ip), vehicle: water 117 % of control | [1] 117 % of control | endpoint: mean survival time, dose: 200.0 mg/kg/injection, schedule: Q03HX024 (ip), vehicle: saline with Tween-80 124 % of control | endpoint: mean survival time, dose: 266.0 mg/kg/injection, schedule: Q01DX005 (ip), vehicle: water 106 % of control | endpoint: mean survival time, dose: 266.0 mg/kg/injection, schedule: Q01DX009 (ip), vehicle: water 112 % of control | endpoint: mean survival time, dose: 300.0 mg/kg/injection, schedule: Q01DX009 (ip), vehicle: saline with Tween-80 114 % of control | endpoint: mean survival time, dose: 300.0 mg/kg/injection, schedule: Q01DX009 (ip), vehicle: saline 119 % of control and 97 % of control | endpoint: mean survival time, dose: 400.0 mg/kg/injection, schedule: Q01DX005 (ip), vehicle: water 108 % of control | endpoint: mean survival time, dose: 400.0 mg/kg/injection, schedule: Q01DX009 (ip), vehicle: water 112 % of control | endpoint: mean survival time, dose: 450.0 mg/kg/injection, schedule: Q01DX009 (ip), vehicle: saline with Tween-80 114 % of control | endpoint: mean survival time, dose: 600.0 mg/kg/injection, schedule: Q01DX005 (ip), vehicle: water 108 % of control | endpoint: mean survival time, dose: 600.0 mg/kg/injection, schedule: Q01DX009 (ip), vehicle: saline 105 % of control | endpoint: mean survival time, dose: 600.0 mg/kg/injection, schedule: Q01DX009 (ip), vehicle: water 114 % of control | endpoint: mean survival time, dose: 900.0 mg/kg/injection, schedule: Q01DX005 (ip), vehicle: water 113 % of control | endpoint: mean survival time, dose: 900.0 mg/kg/injection, schedule: Q01DX009 (ip), vehicle: water 109 % of control | endpoint: median survival time, dose: 1.56 mg/kg/injection, schedule: Q01DX009 (ip), vehicle: saline 111 % of control | endpoint: median survival time, dose: 3.12 mg/kg/injection, schedule: Q01DX009 (ip), vehicle: saline 109 % of control | endpoint: median survival time, dose: 6.25 mg/kg/injection, schedule: Q01DX009 (ip), vehicle: saline 110 % of control | endpoint: median survival time, dose: 11.25 mg/kg/injection, schedule: Q03HX012 (ip), vehicle: saline 112 % of control | endpoint: median survival time, dose: 12.5 mg/kg/injection, schedule: Q01DX009 (ip), vehicle: saline 108 % of control | endpoint: median survival time, dose: 22.5 mg/kg/injection, schedule: Q03HX012 (ip), vehicle: saline 107 % of control | endpoint: median survival time, dose: 25.0 mg/kg/injection, schedule: Q01DX009 (ip), vehicle: saline 115 % of control | endpoint: median survival time, dose: 45.0 mg/kg/injection, schedule: Q03HX012 (ip), vehicle: saline 112 % of control | endpoint: median survival time, dose: 50.0 mg/kg/injection, schedule: Q01DX009 (ip), vehicle: saline 79 % of control | endpoint: median survival time, dose: 90.0 mg/kg/injection, schedule: Q03HX012 (ip), vehicle: saline 116 % of control | endpoint: median survival time, dose: 180.0 mg/kg/injection, schedule: Q03HX012 (ip), vehicle: saline 122 % of control

C=C1C(=O)OC2CCCCCCC12 (stereo not drawn)
inactive: endpoint: mean survival time, dose: 50.0 mg/kg/injection, schedule: Q01DX009 (ip), vehicle: saline 102 % of control | [2] 97 % of control | [3] 100 % of control

c1ccc2c(P(c3cccc4ccccc34)c3cccc4ccccc34)cccc2c1
inactive: [4] 100 % of control | [5] 93 % of control | [6] 89 % of control

CC(O)COCCOCCO (stereo not drawn)
inactive: [2] 100 % of control | [3] 103 % of control | [7] 100 % of control

CC1(C)C2CC=C(CC3CC(=O)OC3=O)C1C2 (stereo not drawn)
inactive: endpoint: mean survival time, dose: 75.0 mg/kg/injection, schedule: Q01DX001 (ip), vehicle: other 97 % of control | endpoint: mean survival time, dose: 150.0 mg/kg/injection, schedule: Q01DX001 (ip), vehicle: other 102 % of control | endpoint: mean survival time, dose: 300.0 mg/kg/injection, schedule: Q01DX001 (ip), vehicle: other 108 % of control

CC1=NNC(=O)C1NNc1ccccc1 (stereo not drawn)
inactive: [8] 96 % of control | [9] 96 % of control | [10] 96 % of control

CCOC(=O)C(=O)C(C#N)c1ccccc1 (stereo not drawn)
inactive: endpoint: mean survival time, dose: 25.0 mg/kg/injection, schedule: Q01DX001 (ip), vehicle: Klucel (hydroxypropylcellulose) (HPC) 92 % of control | endpoint: mean survival time, dose: 50.0 mg/kg/injection, schedule: Q01DX001 (ip), vehicle: Klucel (hydroxypropylcellulose) (HPC) 100 % of control | endpoint: mean survival time, dose: 100.0 mg/kg/injection, schedule: Q01DX001 (ip), vehicle: Klucel (hydroxypropylcellulose) (HPC) 100 % of control and 106 % of control

O=C1CNC(=O)N1c1cccc(Cl)c1
inactive: [11] 96 % of control | [1] 92 % of control

Cc1ccc(S(=O)(=O)Cl)cc1
inactive: endpoint: mean survival time, dose: 100.0 mg/kg/injection, schedule: Q04DX002 (ip), vehicle: saline 91 % of control | endpoint: mean survival time, dose: 200.0 mg/kg/injection, schedule: Q04DX002 (ip), vehicle: saline 100 % of control

N=C(OC1CCCCC1)C(Cl)(Cl)Cl
inactive: endpoint: mean survival time, dose: 50.0 mg/kg/injection, schedule: Q01DX009 (ip), vehicle: saline with Tween-80 92 % of control | [11] 88 % of control

COc1ccc2c(c1)C(=O)C(Br)CC2 (stereo not drawn)
inactive: endpoint: mean survival time, dose: 100.0 mg/kg/injection, schedule: Q01DX001 (ip), vehicle: saline with Tween-80 101 % of control | [11] 98 % of control and 101 % of control | endpoint: mean survival time, dose: 100.0 mg/kg/injection, schedule: Q04DX002 (ip), vehicle: saline with Tween-80 101 % of control and 102 % of control | [8] 108 % of control | endpoint: mean survival time, dose: 200.0 mg/kg/injection, schedule: Q01DX001 (ip), vehicle: saline with Tween-80 93 % of control | [1] 97 % of control and 98 % of control | endpoint: mean survival time, dose: 200.0 mg/kg/injection, schedule: Q04DX002 (ip), vehicle: saline with Tween-80 100 % of control and 104 % of control | [9] 97 % of control | endpoint: mean survival time, dose: 400.0 mg/kg/injection, schedule: Q01DX001 (ip), vehicle: saline with Tween-80 95 % of control | endpoint: mean survival time, dose: 400.0 mg/kg/injection, schedule: Q04DX002 (ip), vehicle: saline with Tween-80 103 % of control and 104 % of control | [10] 110 % of control

NC(CCc1cc(O)ccc1O)C(=O)O (stereo not drawn)
inactive: [2] 98 % of control | [3] 98 % of control | [7] 102 % of control

CCN(CC)C(=O)N1CCN(c2ccccc2)CC1
inactive: endpoint: mean survival time, dose: 100.0 mg/kg/injection, schedule: Q04DX003 (ip), vehicle: saline 98 % of control | endpoint: mean survival time, dose: 200.0 mg/kg/injection, schedule: Q04DX003 (ip), vehicle: saline 93 % of control

OC1=C2CCCCCC2=[N+]2CCCCC2C1 (stereo not drawn)
inactive: [8] 95 % of control | [9] 95 % of control

NC(=O)NC(S(=O)(=O)O)S(=O)(=O)O
inactive: [4] 96 % of control | [5] 101 % of control | [6] 101 % of control
